# From US6525001B1, “Substituted pyrimidine and pyridine herbicides” (Mid-American Commercialization Corporation, priority 1997, dated 2003)
# What was measured:
# Test in all cases: Test D
# Assay type in all cases: in vivo
# [1] = system: Italian ryegrass (Lolium multiflorum); conditions: POSTEMERGENCE
# Procedure: (§1) Compounds evaluated in this test were formulated in a non-phytotoxic solvent mixture which included a surfactant and applied to plants that were in the 1- to 4-leaf stage (postemergence application). A mixture of sandy loam soil and greenhouse potting mix in a 60:40 ratio was used for the postemergence test.
# (§2) Plantings of these crops and weed species were adjusted to produce plants of appropriate size for the postemergence test. All plant species were grown using normal greenhouse practices. Crop and weed species include alfalfa (Medicago sativa), annual bluegrass (Poa annua), blackgrass (Alopecurus myosuroides), black nightshade (Solanum nigra), chickweed (Stellaria media), common poppy (Papaver rhoeas), deadnettle (Lamium amplexicaule), downy brome (Bromus tectorum), field violet (Viola arvensis), galium 2 (Galium aparine), green foxtail (Setaria viridis), Italian ryegrass (Lolium multiflorum), jointed goatgrass (Aegilops cylindrica), kochia (Kochia scoparia), lambsquarters (Chenopodium album), lentil (Lens culinaris), littleseed canarygrass (Phalaris minor), pea (Pisum sativum), potato (Solanum tuberosum), rape (Brassica napus), redroot pigweed (Amaranthus retroflexus), Russian thistle (Salsola kali), scentless chamomile (Matricaria inodora), sorghum (Sorghum vulgare), spring barley (Hordeum vulgare), sugar beet (Beta vulgaris), sunflower (Helianthus annuus), ivyleaf speedwell (Veronica hederaefolia), spring wheat (Triticum aestivum), winter wheat (Triticum aestivum), wild buckwheat (Polygonum convolvulus), wild mustard (Sinapis arvensis), wild oat (Avena fatua), windgrass (Apera spica-venti) and winter barley (Hordeum vulgare).
# (§3) Treated plants and untreated controls were maintained in a greenhouse for approximately 21 to 28 days, after which all treated plants were compared to untreated controls and visually evaluated. Plant response ratings, summarized in Table D, are based upon a 0 to 100 scale where 0 is no effect and 100 is complete control. A dash response (−) means no test result.
# [2] = system: annual bluegrass (Poa annua); conditions: POSTEMERGENCE
# Procedure: as §1, §2, §3
# [3] = system: green foxtail (Setaria viridis); conditions: POSTEMERGENCE
# Procedure: as §1, §2, §3
# [4] = system: scentless chamomile (Matricaria inodora); conditions: POSTEMERGENCE
# Procedure: as §1, §2, §3
# [5] = system: spring barley (Hordeum vulgare); conditions: POSTEMERGENCE
# Procedure: as §1, §2, §3
# [6] = system: spring wheat (Triticum aestivum); conditions: POSTEMERGENCE
# Procedure: as §1, §2, §3
# [7] = system: sunflower (Helianthus annuus); conditions: POSTEMERGENCE
# Procedure: as §1, §2, §3
# wild oat (Avena fatua) = conditions: POSTEMERGENCE
# Procedure: as §1, §2, §3
# [8] = system: winter wheat (Triticum aestivum); conditions: POSTEMERGENCE
# Procedure: as §1, §2, §3
# [9] = system: annual bluegrass (Poa annua); set-up: key: 0 is no effect; 100 is complete control; conditions: PREEMERGENCE
# [10] = system: black nightshade (Solanum nigra); conditions: PREEMERGENCE
# [11] = system: chickweed (Stellaria media); conditions: PREEMERGENCE
# [12] = system: deadnettle (Lamium amplexicaule); set-up: key: 0 is no effect; conditions: PREEMERGENCE
# [13] = system: galium 2 (Galium aparine); set-up: key: 0 is no effect; 100 is complete control; conditions: PREEMERGENCE
# [14] = system: Italian ryegrass (Lolium multiflorum); conditions: PREEMERGENCE
# rape (Brassica napus) = system: rape (Brassica napus); set-up: key: 0 is no effect; 100 is complete control; conditions: PREEMERGENCE
# [15] = system: sugar beet (Beta vulgaris); set-up: key: 0 is no effect; 100 is complete control; conditions: PREEMERGENCE
# [16] = system: sunflower (Helianthus annuus); set-up: key: 0 is no effect; 100 is complete control; conditions: PREEMERGENCE
# [17] = system: spring wheat (Triticum aestivum); set-up: key to Plant response rating, Spring Wheat: 0 is no effect; conditions: PREEMERGENCE
# [18] = system: windgrass (Apera spica-venti); set-up: key: 0 is no effect; 100 is complete control; conditions: PREEMERGENCE
# [19] = system: winter barley (Hordeum vulgare); set-up: key: 0 is no effect; conditions: PREEMERGENCE
# [20] = system: Russian thistle (Salsola kali); conditions: PREEMERGENCE
compound,measurement,setting,value
CCc1cnc(-c2ccc(C(F)(F)F)cc2)nc1Cc1cccc(C(F)(F)F)c1 [Compound 22],"Plant response rating, I. Ryegrass",[1]; Rate 62 g/ha,10
same,"Plant response rating, I. Ryegrass",[1]; Rate 125 g/ha,10
same,"Plant response rating, Annual bluegras",[2]; Rate 62 g/ha,30
same,"Plant response rating, Annual bluegras",[2]; Rate 125 g/ha,70
same,"Plant response rating, Green foxtail",[3]; Rate 62 g/ha,10
same,"Plant response rating, Green foxtail",[3]; Rate 125 g/ha,35
same,"Plant response rating, Scentless chamo",[4]; Rate 62 g/ha,50
same,"Plant response rating, Scentless chamo",[4]; Rate 125 g/ha,80
same,"Plant response rating, Spring Barley",[5]; Rate 62 g/ha,10
same,"Plant response rating, Spring Barley",[5]; Rate 125 g/ha,20
same,"Plant response rating, Spring Wheat",[6]; Rate 62 g/ha,10
same,"Plant response rating, Spring Wheat",[6]; Rate 125 g/ha,20
same,"Plant response rating, Sunflower",[7]; Rate 62 g/ha,10
same,"Plant response rating, Sunflower",[7]; Rate 125 g/ha,20
same,"Plant response rating, Wild oat",wild oat (Avena fatua); Rate 62 g/ha,20
same,"Plant response rating, Wild oat",wild oat (Avena fatua); Rate 125 g/ha,65
same,"Plant response rating, Wheat (winter)",[8]; Rate 62 g/ha,10
same,"Plant response rating, Wheat (winter)",[8]; Rate 125 g/ha,10
same,"Plant response rating, Annual bluegras",[9]; Rate 62 g/ha,20
same,"Plant response rating, Annual bluegras",[9]; Rate 125 g/ha,100
same,"Plant response rating, Annual bluegras",[9]; Rate 250 g/ha,50
same,"Plant response rating, Blk nightshade",[10]; Rate 62 g/ha,10
same,"Plant response rating, Blk nightshade",[10]; Rate 125 g/ha,60
same,"Plant response rating, Blk nightshade",[10]; Rate 250 g/ha,50
same,"Plant response rating, Chickweed",[11]; Rate 62 g/ha,40
same,"Plant response rating, Chickweed",[11]; Rate 125 g/ha,70
same,"Plant response rating, Chickweed",[11]; Rate 250 g/ha,30
same,"Plant response rating, Deadnettle",[12]; Rate 62 g/ha,0
same,"Plant response rating, Deadnettle",[12]; Rate 125 g/ha,70
same,"Plant response rating, Deadnettle",[12]; Rate 250 g/ha,10
same,"Plant response rating, Galium",[13]; Rate 62 g/ha,20
same,"Plant response rating, Galium",[13]; Rate 125 g/ha,100
same,"Plant response rating, Galium",[13]; Rate 250 g/ha,30
same,"Plant response rating, I. Ryegrass",[14]; Rate 125 g/ha,65
same,"Plant response rating, I. Ryegrass",[14]; Rate 250 g/ha,75
same,"Plant response rating, Rape",rape (Brassica napus); Rate 62 g/ha,20
same,"Plant response rating, Rape",rape (Brassica napus); Rate 125 g/ha,100
same,"Plant response rating, Rape",rape (Brassica napus); Rate 250 g/ha,50
same,"Plant response rating, Sugar beet",[15]; Rate 62 g/ha,30
same,"Plant response rating, Sugar beet",[15]; Rate 125 g/ha,100
same,"Plant response rating, Sugar beet",[15]; Rate 250 g/ha,80
same,"Plant response rating, Sunflower",[16]; Rate 62 g/ha,20
same,"Plant response rating, Sunflower",[16]; Rate 125 g/ha,10
same,"Plant response rating, Sunflower",[16]; Rate 250 g/ha,30
same,"Plant response rating, Spring Wheat",[17]; Rate 62 g/ha,0
same,"Plant response rating, Spring Wheat",[17]; Rate 125 g/ha,10
same,"Plant response rating, Spring Wheat",[17]; Rate 250 g/ha,5
same,"Plant response rating, Windgrass",[18]; Rate 62 g/ha,20
same,"Plant response rating, Windgrass",[18]; Rate 125 g/ha,70
same,"Plant response rating, Windgrass",[18]; Rate 250 g/ha,30
same,"Plant response rating, Barley (winter)",[19]; Rate 62 g/ha,0
same,"Plant response rating, Barley (winter)",[19]; Rate 125 g/ha,20
same,"Plant response rating, Barley (winter)",[19]; Rate 250 g/ha,10
Cc1cnc(-n2ccc(C(F)(F)F)n2)nc1Cn1ccc(C(F)(F)F)n1 [Compound 52],"Plant response rating, I. Ryegrass",[1]; Rate 16 g/ha,5
same,"Plant response rating, I. Ryegrass",[1]; Rate 31 g/ha,10
same,"Plant response rating, I. Ryegrass",[1]; Rate 62 g/ha,10
same,"Plant response rating, I. Ryegrass",[1]; Rate 125 g/ha,10
same,"Plant response rating, Annual bluegras",[2]; Rate 16 g/ha,10
same,"Plant response rating, Annual bluegras",[2]; Rate 31 g/ha,20
same,"Plant response rating, Annual bluegras",[2]; Rate 62 g/ha,20
same,"Plant response rating, Annual bluegras",[2]; Rate 125 g/ha,50
same,"Plant response rating, Green foxtail",[3]; Rate 16 g/ha,10
same,"Plant response rating, Green foxtail",[3]; Rate 31 g/ha,10
same,"Plant response rating, Green foxtail",[3]; Rate 62 g/ha,10
same,"Plant response rating, Green foxtail",[3]; Rate 125 g/ha,30
same,"Plant response rating, Scentless chamo",[4]; Rate 16 g/ha,30
same,"Plant response rating, Scentless chamo",[4]; Rate 31 g/ha,50
same,"Plant response rating, Scentless chamo",[4]; Rate 62 g/ha,60
same,"Plant response rating, Scentless chamo",[4]; Rate 125 g/ha,70
same,"Plant response rating, Spring Barley",[5]; Rate 16 g/ha,10
same,"Plant response rating, Spring Barley",[5]; Rate 31 g/ha,10
same,"Plant response rating, Spring Barley",[5]; Rate 62 g/ha,10
same,"Plant response rating, Spring Barley",[5]; Rate 125 g/ha,10
same,"Plant response rating, Spring Wheat",[6]; Rate 16 g/ha,10
same,"Plant response rating, Spring Wheat",[6]; Rate 31 g/ha,10
same,"Plant response rating, Spring Wheat",[6]; Rate 62 g/ha,10
same,"Plant response rating, Spring Wheat",[6]; Rate 125 g/ha,10
same,"Plant response rating, Sunflower",[7]; Rate 16 g/ha,40
same,"Plant response rating, Sunflower",[7]; Rate 31 g/ha,20
same,"Plant response rating, Sunflower",[7]; Rate 62 g/ha,50
same,"Plant response rating, Sunflower",[7]; Rate 125 g/ha,70
same,"Plant response rating, Wild oat",wild oat (Avena fatua); Rate 16 g/ha,10
same,"Plant response rating, Wild oat",wild oat (Avena fatua); Rate 31 g/ha,10
same,"Plant response rating, Wild oat",wild oat (Avena fatua); Rate 62 g/ha,10
same,"Plant response rating, Wild oat",wild oat (Avena fatua); Rate 125 g/ha,10
same,"Plant response rating, Wheat (winter)",[8]; Rate 16 g/ha,10
same,"Plant response rating, Wheat (winter)",[8]; Rate 31 g/ha,10
same,"Plant response rating, Wheat (winter)",[8]; Rate 62 g/ha,10
same,"Plant response rating, Wheat (winter)",[8]; Rate 125 g/ha,10
same,"Plant response rating, Annual bluegras",[9]; Rate 31 g/ha,50
same,"Plant response rating, Annual bluegras",[9]; Rate 62 g/ha,100
same,"Plant response rating, Annual bluegras",[9]; Rate 125 g/ha,100
same,"Plant response rating, Blk nightshade",[10]; Rate 31 g/ha,10
same,"Plant response rating, Blk nightshade",[10]; Rate 62 g/ha,40
same,"Plant response rating, Blk nightshade",[10]; Rate 125 g/ha,90
same,"Plant response rating, Chickweed",[11]; Rate 31 g/ha,30
same,"Plant response rating, Chickweed",[11]; Rate 62 g/ha,80
same,"Plant response rating, Chickweed",[11]; Rate 125 g/ha,85
same,"Plant response rating, Deadnettle",[12]; Rate 31 g/ha,50
same,"Plant response rating, Deadnettle",[12]; Rate 62 g/ha,70
same,"Plant response rating, Deadnettle",[12]; Rate 125 g/ha,90
same,"Plant response rating, I. Ryegrass",[14]; Rate 31 g/ha,30
same,"Plant response rating, I. Ryegrass",[14]; Rate 62 g/ha,70
same,"Plant response rating, I. Ryegrass",[14]; Rate 125 g/ha,70
same,"Plant response rating, Rape",rape (Brassica napus); Rate 31 g/ha,50
same,"Plant response rating, Rape",rape (Brassica napus); Rate 62 g/ha,60
same,"Plant response rating, Rape",rape (Brassica napus); Rate 125 g/ha,100
same,"Plant response rating, Russian thistle",[20]; Rate 31 g/ha,30
same,"Plant response rating, Russian thistle",[20]; Rate 62 g/ha,85
same,"Plant response rating, Russian thistle",[20]; Rate 125 g/ha,85
same,"Plant response rating, Sugar beet",[15]; Rate 31 g/ha,100
same,"Plant response rating, Sugar beet",[15]; Rate 62 g/ha,100
same,"Plant response rating, Sugar beet",[15]; Rate 125 g/ha,100
same,"Plant response rating, Sunflower",[16]; Rate 31 g/ha,0
same,"Plant response rating, Sunflower",[16]; Rate 62 g/ha,0
same,"Plant response rating, Sunflower",[16]; Rate 125 g/ha,0
same,"Plant response rating, Spring Wheat",[17]; Rate 31 g/ha,60
same,"Plant response rating, Spring Wheat",[17]; Rate 62 g/ha,70
same,"Plant response rating, Spring Wheat",[17]; Rate 125 g/ha,70
same,"Plant response rating, Windgrass",[18]; Rate 31 g/ha,80
same,"Plant response rating, Windgrass",[18]; Rate 62 g/ha,100
same,"Plant response rating, Windgrass",[18]; Rate 125 g/ha,100
same,"Plant response rating, Barley (winter)",[19]; Rate 31 g/ha,50
same,"Plant response rating, Barley (winter)",[19]; Rate 62 g/ha,50
same,"Plant response rating, Barley (winter)",[19]; Rate 125 g/ha,60
